# Experimental data taken from patent US20140057915A1, “KINASE INHIBITORS” (TOPIVERT PHARMA LIMITED, priority 2012, published 2014).
# How the values were obtained:
# [1] = molecular target: cSrc (Homo sapiens, UniProt P12931); assay: c-Src enzyme inhibition (FRET); type: biochemical
# Procedure, shortened: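 2 hr RT enzyme + cpd (added solns 4/0.4/0.04/0.004 μg/mL); + FRET peptide (8 μM soln) + ATP soln (c-Src 800 μM, Syk 60 μM), 1 hr; protease development 1 hr; read donor/acceptor emission ratio.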
# [2] = molecular target: GSK3α (Homo sapiens, UniProt P49840); assay: GSK 3α enzyme inhibition (FRET), Method 1; type: biochemical; details: Table 4a1
# GSK3α, sequence (P49840 whole entry): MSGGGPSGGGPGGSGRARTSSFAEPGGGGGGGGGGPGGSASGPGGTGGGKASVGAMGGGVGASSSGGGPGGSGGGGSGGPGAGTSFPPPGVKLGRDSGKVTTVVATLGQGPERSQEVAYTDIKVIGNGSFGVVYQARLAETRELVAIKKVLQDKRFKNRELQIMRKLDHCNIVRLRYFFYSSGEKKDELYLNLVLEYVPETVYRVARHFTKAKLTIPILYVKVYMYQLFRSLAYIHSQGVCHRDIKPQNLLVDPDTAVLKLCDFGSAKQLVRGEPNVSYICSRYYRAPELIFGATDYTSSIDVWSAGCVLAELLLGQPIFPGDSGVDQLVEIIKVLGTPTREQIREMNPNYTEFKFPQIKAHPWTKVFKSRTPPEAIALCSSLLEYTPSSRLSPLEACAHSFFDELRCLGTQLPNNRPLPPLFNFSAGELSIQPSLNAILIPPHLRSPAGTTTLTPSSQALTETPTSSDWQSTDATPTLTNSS
# Procedure, shortened: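 Compounds are tested at added-solution levels of 4, 0.4, 0.04 or 0.004 μg/mL against GSK3α, with a 2 hr RT preincubation. Kinase reaction with FRET peptide and ATP (8 μM and 40 μM as added) runs 1 hr, and phosphorylation is judged by the protease-sensitive FRET ratio.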
# [3] = system: TNFα release, d-U937 cells; assay: LPS-induced TNFα release in d-U937 cells; type: cell-based; details: Homo sapiens, dU937; for EC50: relative to 10 μg/mL BIRB796, Table 4c1, read-out: LPS Induced Release of Cytokine in d-U937 Cells, TNFα REC50
# Procedure, shortened: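 Sandwich ELISA quantifies cytokine in supernatants after 4 hr LPS challenge (0.1 μg/mL) of PMA-differentiated (100 ng/mL, 48–72 hr) U937 macrophages given compound 2 hr beforehand. REC50 derived from concentration-response curve, inhibition calculated relative to vehicle.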
# [4] = system: IL-8 release, d-U937 cells; assay: LPS-induced IL-8 release in d-U937 cells; type: cell-based; details: Homo sapiens, dU937; Table 4c1; read-out: LPS Induced Release of Cytokine in d-U937 Cells, IL-8 IC50
# Procedure, shortened: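 IL-8 release after a 4 hr challenge with LPS (0.1 μg/mL, E. coli 0111:B4) following a 2 hr compound pretreatment. Cells were human U937 monocytes differentiated to macrophage-type with PMA 100 ng/mL for 48–72 hr. Relative 50% effective concentration derived from concentration–response data.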
# [5] = system: PBMC cells; assay: Cell mitosis assay; type: cell-based; details: Homo sapiens, read-out: % Inhibition of mitosis in PBMC cells at 5 μg/mL
# Procedure, shortened: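 Healthy-donor PBMCs (3 million cells per sample) stimulated with 2% PHA for 48 hr, then exposed 20 hr to varying compound concentrations. Demecolcine (0.1 μg/mL) added 2 hr before collection to arrest cells in metaphase; read by flow cytometry gated on lymphocytes.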
# [6] = system: HRV16 in MRC5 cells; assay: HRV16 induced CPE in MRC5 cells; type: cell-based; details: Human rhinovirus sp., HRV-16
# Protocol: (j) Assessment of HRV16 Induced CPE in MRC5 Cells
# MRC-5 cells are infected with HRV16 at an MOI of 1n DMEM containing 5% FCS and 1.5 mM magnesium chloride, followed by incubation for 1 hr at 33° C. to promote adsorption. The supernatants are aspirated, and then fresh media added followed by incubation for 4 days. Where appropriate, cells are pre-incubated with compound or DMSO for 2 hr, and the compounds and DMSO added again after washout of the virus.
# After washing, 1% SDS in distilled water (100 μL) is added to each well, and the plates are shaken lightly for 1-2 hr prior to reading the absorbance at 660 nm. The percentage inhibition for each well is calculated. The IC50 value is calculated from the concentration-response curve generated by the serial dilutions of the test compounds.
# [7] = system: d-U937 cells; assay: Cell viability: MTT assay; type: cell-based, human; details: 1 μg/mL
# Procedure, shortened: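 MTT reduction (1 h, DMSO solubilisation, A550) measured after compound treatment at 1 or 10 μg/mL of differentiated U937 cells for 4 h (5% FCS RPMI1640) or 24 h (10% FCS). Percentage viability loss computed relative to 0.5% DMSO vehicle, with increases tabulated as negative values.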
# cSrc, sequence (P12931 whole entry): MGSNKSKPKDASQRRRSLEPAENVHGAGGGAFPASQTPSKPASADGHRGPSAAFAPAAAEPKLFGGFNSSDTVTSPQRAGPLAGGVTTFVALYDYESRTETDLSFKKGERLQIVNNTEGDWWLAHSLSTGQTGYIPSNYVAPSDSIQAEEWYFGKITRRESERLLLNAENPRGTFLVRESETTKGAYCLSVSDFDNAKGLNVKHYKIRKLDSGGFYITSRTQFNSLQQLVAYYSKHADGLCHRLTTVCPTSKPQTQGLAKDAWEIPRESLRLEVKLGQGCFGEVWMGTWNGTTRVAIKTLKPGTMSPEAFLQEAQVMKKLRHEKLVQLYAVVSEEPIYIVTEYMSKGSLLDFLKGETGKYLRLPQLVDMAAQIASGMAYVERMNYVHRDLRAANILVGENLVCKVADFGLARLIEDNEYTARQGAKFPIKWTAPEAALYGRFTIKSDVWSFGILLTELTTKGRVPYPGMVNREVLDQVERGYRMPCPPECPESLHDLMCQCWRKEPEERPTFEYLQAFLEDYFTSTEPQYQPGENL
IC50 ([1]; Table 4a1) [nM],IC50 [2] [nM],EC50 [3] [nM],IC50 [4] [nM],"IC50 ([1]; Table 4a2, different laboratory) [nM]","IC50 ([3]; Table 4c2, different laboratory, read-out: IC50 Values for Inhibition of Cytokine Release, dU937 cells, TNFα) [nM]",SMILES,inhibition at 5 µg/mL [5] [%],IC50 [6] [nM],"Cell viability at time point in d-U937 cells, 4 h [7]","Cell viability at time point in d-U937 cells, 24 h [7]"
< 1,2990,5.2,2.3,,,"COc1ccc(-n2nc(C3(C)COC3)cc2NC(=O)Nc2ccc(Oc3ccnc(Nc4cccc(C(=O)NCCN5CCOCC5)c4)n3)c3ccccc23)cc1 [Example 23, 3-((4-((4-(3-(1-(4-methoxyphenyl)-3-(3-methyloxetan-3-yl)-1H-pyrazol-5-yl)ureido)naphthalen-1-yl)oxy)pyrimidin-2-yl)amino)-N-(2-morpholinoethyl)benzamide]",35.6,22.3,"−ve (−ve and +ve indicate that the value is below and above respectively, the no significant effect threshold, defined as 30% inhibition at 1 μg/mL at the time point indicated)","−ve (−ve and +ve indicate that the value is below and above respectively, the no significant effect threshold, defined as 30% inhibition at 1 μg/mL at the time point indicated)"
20,> 1390,1.5,2,,,"COc1ccc(-n2nc(C(C)(C)C)cc2NC(=O)Nc2ccc(Oc3ccnc(Nc4cc(Br)cc(C(N)=O)c4)n3)c3ccccc23)cc1 [Example 42, 3-bromo-5-((4-((4-(3-(3-(tert-butyl)-1-(4-methoxyphenyl)-1H-pyrazol-5-yl)ureido)naphthalen-1-yl)oxy)pyrimidin-2-yl)amino)benzamide]",12.9,2.2,"−ve (−ve and +ve indicate that the value is below and above respectively, the no significant effect threshold, defined as 30% inhibition at 1 μg/mL at the time point indicated)","−ve (−ve and +ve indicate that the value is below and above respectively, the no significant effect threshold, defined as 30% inhibition at 1 μg/mL at the time point indicated)"
< 1,> 13000,1,0.6,,,"COc1cc(Nc2nccc(Oc3ccc(NC(=O)Nc4cc(C5(C)CC5)nn4-c4ccc(C)cc4)c4ccccc34)n2)cc(C(=O)NCCN2CCOCC2)c1 [Example 51, 3-methoxy-5-((4-((4-(3-(3-(1-methylcyclopropyl)-1-(p-tolyl)-1H-pyrazol-5-yl)ureido)naphthalen-1-yl)oxy)pyrimidin-2-yl)amino)-N-(2-morpholinoethyl)benzamide]",20,1.9,"−ve (−ve and +ve indicate that the value is below and above respectively, the no significant effect threshold, defined as 30% inhibition at 1 μg/mL at the time point indicated)","−ve (−ve and +ve indicate that the value is below and above respectively, the no significant effect threshold, defined as 30% inhibition at 1 μg/mL at the time point indicated)"
< 1,> 13000,0.3,1.1,8,0.7,"COc1ccc(-n2nc(C(C)C)cc2NC(=O)Nc2ccc(Oc3ccnc(Nc4cc(OC)cc(C(=O)NCCN5CCOCC5)c4)n3)c3ccccc23)cc1 [Example 53, 3-((4-((4-(3-(3-isopropyl-1-(4-methoxyphenyl)-1H-pyrazol-5-yl)ureido)naphthalen-1-yl)oxy)pyrimidin-2-yl)amino)-5-methoxy-N-(2-morpholinoethyl)benzamide]",39.4,2,"−ve (−ve and +ve indicate that the value is below and above respectively, the no significant effect threshold, defined as 30% inhibition at 1 μg/mL at the time point indicated)","−ve (−ve and +ve indicate that the value is below and above respectively, the no significant effect threshold, defined as 30% inhibition at 1 μg/mL at the time point indicated)"
